26 compounds from patent US8735414B2 (priority 2009, dated 2014) can be followed below.

Data set [1] has as its system bicistronic HCV replicon (replicon RNA, GenBank Accession No. AJ242654). The experiment in a line: HCV Replicon Assay. The data set is classed as cell-based. As to conditions: Hepatitis C virus, 72 h, read-out: Replicon IC50. In general terms: In antiviral work, replicon cells carry a viral genome segment that copies itself.

Some results are limits rather than exact numbers.

For `Cc1ccc2c(C#N)c(-c3ncc(S(=O)(=O)NC(C)C)cn3)n(C(C)C)c2c1` [compound 167, 2-[3-cyano-6-methyl-1-(propan-2-yl)-1H-indol-2-yl]-N-(propan-2-yl)pyrimidine-5-sulfonamide], the melting point (usually the temperature of the solid-liquid transition) lay in the range of 205 to 206 °C. In addition, the IC50 (in general, the concentration at which inhibition is half-maximal) in data set [1] is under 0.5 µM.
For `N#Cc1c(-c2ncc(S(=O)(=O)NC(CF)CF)cn2)n(C2CCCC2)c2cc(OC(F)F)ccc12` [compound 233, 2-[3-cyano-1-cyclopentyl-6-(difluoromethoxy)-1H-indol-2-yl]-N-(1,3-difluoropropan-2-yl)pyrimidine-5-sulfonamide] the same measures were 199 to 201 °C and under 0.5 µM.
Taken in the same sequence, the figures for `CCc1cc2c(cc1F)c(C(N)=O)c(-c1ccc(NS(=O)(=O)C(C)(C)C)nc1)n2C1CCCCC1` [compound 1037, 2-{6-[(tert-butylsulfonyl)amino]pyridin-3-yl}-1-cyclohexyl-6-ethyl-5-fluoro-1H-indole-3-carboxamide] were 297 to 299 °C and under 0.5 µM.
Taken in the same sequence, the figures for `CC(C)(C)S(=O)(=O)Nc1ccc(-c2c(C(N)=O)c3c(F)cc(C4CC4)cc3n2-c2ccc(F)cc2)cn1` [compound 1105, 2-{6-[(tert-butylsulfonyl)amino]pyridin-3-yl}-6-cyclopropyl-4-fluoro-1-(4-fluorophenyl)-1H-indole-3-carboxamide] were 290 to 295 °C and under 0.5 µM.
Take `CCS(=O)(=O)Nc1ccc(-c2c(C#N)c3ccc(C4CC4)cc3n2C2CCC2)cn1` [compound 288, N-[5-(3-cyano-1-cyclobutyl-6-cyclopropyl-1H-indol-2-yl)pyridin-2-yl]ethanesulfonamide]: the melting point was in the range of 241 to 243 °C. Besides, the IC50 in data set [1] was in the range of 0.5 to 2 µM.
Compound `CCc1cc2c(cc1F)c(C#N)c(-c1ccc(S(=O)(=O)N[C@@H](C)C(F)(F)F)cn1)n2-c1cncc(Cl)c1` [compound 983, 6-[1-(5-chloropyridin-3-yl)-3-cyano-6-ethyl-5-fluoro-1H-indol-2-yl]-N-[(2S)-1,1,1-trifluoropropan-2-yl]pyridine-3-sulfonamide] showed a melting point of 107 to 109 °C. In data set [1], the IC50 is under 0.5 µM.
In turn, `C[C@@H](NS(=O)(=O)c1ccc(-c2c(C(N)=O)c3cc(F)c(C4CC4)cc3n2C2CCCC2)nc1)C(F)(F)F` [compound 829, 1-cyclopentyl-6-cyclopropyl-5-fluoro-2-(5-{[(2R)-1,1,1-trifluoropropan-2-yl]sulfamoyl}pyridin-2-yl)-1H-indole-3-carboxamide] came in with a melting point of 233 to 234 °C. Further, the IC50 in data set [1] was under 0.5 µM.
As for `CC(C)n1c(-c2ncc(S(=O)(=O)N[C@@H](C)C3CC3)cn2)c(C#N)c2cc(F)ccc21` [compound 529, 2-[3-cyano-5-fluoro-1-(propan-2-yl)-1H-indol-2-yl]-N-[(1S)-1-cyclopropylethyl]pyrimidine-5-sulfonamide], the melting point is 176 to 179 °C. In addition, in data set [1], the IC50 was under 0.5 µM.
For `Cc1cc2c(cc1F)c(C#N)c(-c1ccc(S(=O)(=O)N[C@@H](C)C(F)(F)F)cn1)n2-c1ncccc1Cl` [compound 971, 6-[1-(3-chloropyridin-2-yl)-3-cyano-5-fluoro-6-methyl-1H-indol-2-yl]-N-[(2S)-1,1,1-trifluoropropan-2-yl]pyridine-3-sulfonamide] the same measures were 221 to 225 °C and 0.5 to 2 µM.
Taken in the same sequence, the figures for `N#Cc1c(-c2ccc(S(=O)(=O)NC(CF)CF)cn2)n(C2CCCCC2)c2cc(F)ccc12` [compound 234, 6-(3-cyano-1-cyclohexyl-6-fluoro-1H-indol-2-yl)-N-(1,3-difluoropropan-2-yl)pyridine-3-sulfonamide] were 193 to 199 °C and under 0.5 µM.
For `CC(C)NS(=O)(=O)c1cnc(-c2c(C#N)c3ccc(C4CC4)cc3n2C2CCC2)nc1` [compound 71, 2-(3-cyano-1-cyclobutyl-6-cyclopropyl-1H-indol-2-yl)-N-(propan-2-yl)pyrimidine-5-sulfonamide] the same measures were 192 to 193 °C and under 0.5 µM.
`CCc1cc2c(cc1F)c(C#N)c(-c1ccc(S(=O)(=O)N[C@@H](C)C(F)(F)F)cn1)n2-c1ncc(C)cn1` [compound 976, 6-[3-cyano-6-ethyl-5-fluoro-1-(5-methylpyrimidin-2-yl)-1H-indol-2-yl]-N-[(2S)-1,1,1-trifluoropropan-2-yl]pyridine-3-sulfonamide] returned a melting point of 201 to 206 °C. Further, the IC50 in data set [1] is under 0.5 µM.
Taken in the same sequence, the figures for `N#Cc1c(-c2ccc(S(=O)(=O)NC(CF)CF)cn2)n(-c2ccncc2)c2ccc(F)cc12` [compound 259, 6-[3-cyano-5-fluoro-1-(pyridin-4-yl)-1H-indol-2-yl]-N-(1,3-difluoropropan-2-yl)pyridine-3-sulfonamide] were 199 to 203 °C and under 0.5 µM.
In turn, `C[C@H](NS(=O)(=O)c1cnc(-c2c(C#N)c3cc(F)ccc3n2CC2CC2)nc1)C1CC1` [compound 531, 2-[3-cyano-1-(cyclopropylmethyl)-5-fluoro-1H-indol-2-yl]-N-[(1S)-1-cyclopropylethyl]pyrimidine-5-sulfonamide] yielded a melting point of 184 to 188 °C. Further, the IC50 in data set [1] was under 0.5 µM.
For `Cc1ccc2c(c1)c(C#N)c(-c1ccc(S(=O)(=O)N[C@H](C)C(F)(F)F)cn1)n2C1CCCCC1` [compound 487, 6-(3-cyano-1-cyclohexyl-5-methyl-1H-indol-2-yl)-N-[(2R)-1,1,1-trifluoropropan-2-yl]pyridine-3-sulfonamide] the same measures were 180 to 189 °C and under 0.5 µM.
For `C[C@@H](NS(=O)(=O)c1ccc(-c2c(C#N)c3cc(F)c(C4CC4)cc3n2C2CCC2)nc1)C(F)(F)F` [compound 631, 6-(3-cyano-1-cyclobutyl-6-cyclopropyl-5-fluoro-1H-indol-2-yl)-N-[(2R)-1,1,1-trifluoropropan-2-yl]pyridine-3-sulfonamide] the same measures were 190 to 194 °C and under 0.5 µM.
For the compound `CC(C)Sc1ccc2c(C#N)c(-c3ccc(S(=O)(=O)N4CCCCC4)cn3)n(C3CCC3)c2c1` [compound 22, 1-cyclobutyl-2-[5-(piperidin-1-ylsulfonyl)pyridin-2-yl]-6-(propan-2-ylsulfanyl)-1H-indole-3-carbonitrile], the melting point was in the range of 169 to 171 °C. Moreover, the IC50 in data set [1] was in the range of 0.5 to 2 µM.
The compound `Cc1cc2c(C#N)c(-c3ccc(S(=O)(=O)N[C@@H](C)C(F)(F)F)cn3)n(-c3ncccn3)c2cc1F` [compound 901, 6-[3-cyano-6-fluoro-5-methyl-1-(pyrimidin-2-yl)-1H-indol-2-yl]-N-[(2S)-1,1,1-trifluoropropan-2-yl]pyridine-3-sulfonamide] returned a melting point of 125 to 130 °C. Further, the IC50 in data set [1] is under 0.5 µM.
As for `[2H]C([2H])([2H])c1cc2c(cc1F)c(C#N)c(-c1ccc(S(=O)(=O)N[C@@]([2H])(C)C(F)(F)F)cn1)n2C1CCC1` [compound 1114, 6-[3-cyano-1-cyclobutyl-5-fluoro-6-(1,1,1-trideuterium)methyl-1H-indol-2-yl]-N-[(2S)-1,1,1-trifluoro(2-deuterium)propan-2-yl]pyridine-3-sulfonamide], the melting point lay in the range of 213 to 215 °C. In addition, in data set [1], the IC50 was under 0.5 µM.
For `CCc1cc2c(cc1F)c(S(C)(=O)=O)c(-c1ccc(S(=O)(=O)NC(C)(C)C)cn1)n2-c1ncccn1` [compound 869, N-tert-butyl-6-(6-ethyl-5-fluoro-3-(methylsulfonyl)-1-(pyrimidin-2-yl)-1H-indol-2-yl)pyridine-3-sulfonamide] the same measures were 244 to 248 °C and 0.5 to 2 µM.
Taken in the same sequence, the figures for `Cc1cc2c(cc1F)c(C(N)=O)c(-c1ccc(S(=O)(=O)NC(C)(C)C(F)(F)F)cn1)n2C1CCCC1` [compound 701, 1-cyclopentyl-5-fluoro-6-methyl-2-{5-[(1,1,1-trifluoro-2-methylpropan-2-yl)sulfamoyl]pyridin-2-yl}-1H-indole-3-carboxamide] were 211 to 214 °C and under 0.5 µM.
For `CC(C)c1ccc2c(C#N)c(-c3ccc(S(=O)(=O)NC(CF)CF)cn3)n(C(C)C)c2c1` [compound 456, 6-[3-cyano-1,6-di(propan-2-yl)-1H-indol-2-yl]-N-(1,3-difluoropropan-2-yl)pyridine-3-sulfonamide] the same measures were 165 to 173 °C and under 0.5 µM.
As to `N#Cc1c(-c2ccc(S(=O)(=O)NC(CF)CF)cn2)n(-c2ccccn2)c2ccc(Cl)cc12` [compound 443, 6-[5-chloro-3-cyano-1-(pyridin-2-yl)-1H-indol-2-yl]-N-(1,3-difluoropropan-2-yl)pyridine-3-sulfonamide], the melting point was 187 to 188 °C. Further, the IC50 in data set [1] was under 0.5 µM.
Taken in the same sequence, the figures for `C[C@H](NS(=O)(=O)c1ccc(-c2c(C#N)c3ccc(CF)cc3n2C2CCC2)nc1)C(F)(F)F` [compound 362, 6-[3-cyano-1-cyclobutyl-6-(fluoromethyl)-1H-indol-2-yl]-N-[(2S)-1,1,1-trifluoropropan-2-yl]pyridine-3-sulfonamide] were 205 to 209 °C and under 0.5 µM.
For `COc1ccc2c(C#N)c(-c3ccc(S(=O)(=O)N[C@@H](C)C(F)(F)F)cn3)n(C3CCCCC3)c2c1` [compound 519, 6-(3-cyano-1-cyclohexyl-6-methoxy-1H-indol-2-yl)-N-[(2S)-1,1,1-trifluoropropan-2-yl]pyridine-3-sulfonamide] the same measures were 197 to 204 °C and under 0.5 µM.
On to `CC(C)NS(=O)(=O)c1ccc(-c2c(C#N)c3cc(F)ccc3n2-c2ccccn2)nc1` [compound 439, 6-[3-cyano-5-fluoro-1-(pyridin-2-yl)-1H-indol-2-yl]-N-(propan-2-yl)pyridine-3-sulfonamide], for which the melting point is 208 to 210 °C. Also, the half-maximal inhibitory concentration (IC50) in data set [1] was under 0.5 µM.
